Consider five compounds from ChEMBL document CHEMBL5465560, “Selectivity Literature for EUbOPEN Chemogenomic Library” (2024).

In assay [1] the target is T1, Ephrin type-B receptor 6 (Homo sapiens) (UniProt O15197).
T1 sequence (whole entry): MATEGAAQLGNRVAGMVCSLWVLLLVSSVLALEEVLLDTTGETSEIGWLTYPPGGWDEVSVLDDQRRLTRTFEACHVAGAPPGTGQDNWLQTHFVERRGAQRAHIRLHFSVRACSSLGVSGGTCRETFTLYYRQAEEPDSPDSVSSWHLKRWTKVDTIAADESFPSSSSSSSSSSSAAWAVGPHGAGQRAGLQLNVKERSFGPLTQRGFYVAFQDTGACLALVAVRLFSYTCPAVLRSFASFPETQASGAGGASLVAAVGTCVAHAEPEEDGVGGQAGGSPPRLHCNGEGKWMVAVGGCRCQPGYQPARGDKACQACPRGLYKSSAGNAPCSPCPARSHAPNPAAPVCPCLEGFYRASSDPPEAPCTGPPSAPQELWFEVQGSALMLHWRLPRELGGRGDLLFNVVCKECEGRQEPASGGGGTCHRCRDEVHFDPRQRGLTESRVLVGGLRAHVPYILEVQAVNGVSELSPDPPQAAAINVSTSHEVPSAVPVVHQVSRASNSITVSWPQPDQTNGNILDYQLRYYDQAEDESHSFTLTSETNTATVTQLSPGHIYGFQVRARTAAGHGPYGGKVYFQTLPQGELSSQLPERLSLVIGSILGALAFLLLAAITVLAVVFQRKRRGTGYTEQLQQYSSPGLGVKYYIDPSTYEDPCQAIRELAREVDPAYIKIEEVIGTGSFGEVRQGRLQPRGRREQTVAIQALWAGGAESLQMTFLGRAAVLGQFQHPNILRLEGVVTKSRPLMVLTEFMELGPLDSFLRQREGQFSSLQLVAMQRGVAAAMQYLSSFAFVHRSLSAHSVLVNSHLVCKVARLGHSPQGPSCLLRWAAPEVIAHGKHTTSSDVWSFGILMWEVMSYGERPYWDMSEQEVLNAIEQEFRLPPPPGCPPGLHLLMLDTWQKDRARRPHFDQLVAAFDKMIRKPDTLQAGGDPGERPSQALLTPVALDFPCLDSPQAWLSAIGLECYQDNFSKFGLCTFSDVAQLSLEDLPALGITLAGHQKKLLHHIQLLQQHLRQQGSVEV
The following applies: at 10 µM.

For assay [2], the target named is Serine/threonine-protein kinase MARK2 (Homo sapiens) (UniProt Q7KZI7). The experiment in a line: Selectivity interaction (ActivX KiNativ screen (kinase selectivity in THP-1 cell lysates)) EUB0000639a MARK2. Format: subcellular. Particulars: lysate, at 0.2 µM.
Another assay has as its target Misshapen-like kinase 1 (Homo sapiens, UniProt Q8N4C8). As to the kind of experiment: Selectivity interaction (KinomeScan (DiscoverX)) EUB0000045b MINK1.
Assay [3] addresses T2, Ephrin type-B receptor 1 (Homo sapiens) (UniProt P54762).
T2 sequence (whole entry): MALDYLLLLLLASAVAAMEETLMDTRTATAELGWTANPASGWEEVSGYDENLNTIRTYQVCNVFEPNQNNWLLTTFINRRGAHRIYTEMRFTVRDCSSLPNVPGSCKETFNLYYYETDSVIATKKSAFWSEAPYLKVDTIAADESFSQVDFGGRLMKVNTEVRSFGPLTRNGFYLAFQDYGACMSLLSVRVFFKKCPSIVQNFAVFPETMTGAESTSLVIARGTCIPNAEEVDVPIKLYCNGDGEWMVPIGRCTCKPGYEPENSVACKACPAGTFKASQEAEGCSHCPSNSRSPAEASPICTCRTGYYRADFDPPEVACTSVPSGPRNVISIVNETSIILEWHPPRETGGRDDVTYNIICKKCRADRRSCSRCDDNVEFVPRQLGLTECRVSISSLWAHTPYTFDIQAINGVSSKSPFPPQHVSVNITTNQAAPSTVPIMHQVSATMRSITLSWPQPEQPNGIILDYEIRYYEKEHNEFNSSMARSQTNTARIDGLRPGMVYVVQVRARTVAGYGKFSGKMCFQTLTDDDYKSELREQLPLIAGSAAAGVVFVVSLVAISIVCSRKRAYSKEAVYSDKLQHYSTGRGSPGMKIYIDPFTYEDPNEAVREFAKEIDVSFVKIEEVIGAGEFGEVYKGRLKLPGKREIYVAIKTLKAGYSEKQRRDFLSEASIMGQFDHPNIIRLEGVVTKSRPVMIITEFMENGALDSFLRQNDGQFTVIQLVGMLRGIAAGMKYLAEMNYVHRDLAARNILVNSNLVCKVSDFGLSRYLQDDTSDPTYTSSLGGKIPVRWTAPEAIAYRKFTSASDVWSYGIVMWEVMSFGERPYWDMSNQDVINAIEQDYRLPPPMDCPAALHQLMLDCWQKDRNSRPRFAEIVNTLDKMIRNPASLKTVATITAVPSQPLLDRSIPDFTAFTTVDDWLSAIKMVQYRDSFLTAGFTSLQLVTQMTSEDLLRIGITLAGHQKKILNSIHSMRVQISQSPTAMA
The experiment in a line: Selectivity interaction (KinomeScan (DiscoverX)) EUB0000655a EPHB1. The following applies: at 10 µM.

Assay [4] relates to Leucine-rich repeat serine/threonine-protein kinase 2 (Homo sapiens), Q5S007 [G2019S]. The experiment in a line: (§1) Selectivity interaction (KinomeScan (DiscoverX)) EUB0001079a LRRK2. The following applies: at 1 µM.
Assay [5] addresses Leucine-rich repeat serine/threonine-protein kinase 2 (Homo sapiens, UniProt Q5S007). The assay is described as §1. Particulars: at 1 µM.
The target in assay [6] is T3, G protein-coupled receptor kinase 3 (Homo sapiens) (UniProt P35626).
T3 sequence (whole entry): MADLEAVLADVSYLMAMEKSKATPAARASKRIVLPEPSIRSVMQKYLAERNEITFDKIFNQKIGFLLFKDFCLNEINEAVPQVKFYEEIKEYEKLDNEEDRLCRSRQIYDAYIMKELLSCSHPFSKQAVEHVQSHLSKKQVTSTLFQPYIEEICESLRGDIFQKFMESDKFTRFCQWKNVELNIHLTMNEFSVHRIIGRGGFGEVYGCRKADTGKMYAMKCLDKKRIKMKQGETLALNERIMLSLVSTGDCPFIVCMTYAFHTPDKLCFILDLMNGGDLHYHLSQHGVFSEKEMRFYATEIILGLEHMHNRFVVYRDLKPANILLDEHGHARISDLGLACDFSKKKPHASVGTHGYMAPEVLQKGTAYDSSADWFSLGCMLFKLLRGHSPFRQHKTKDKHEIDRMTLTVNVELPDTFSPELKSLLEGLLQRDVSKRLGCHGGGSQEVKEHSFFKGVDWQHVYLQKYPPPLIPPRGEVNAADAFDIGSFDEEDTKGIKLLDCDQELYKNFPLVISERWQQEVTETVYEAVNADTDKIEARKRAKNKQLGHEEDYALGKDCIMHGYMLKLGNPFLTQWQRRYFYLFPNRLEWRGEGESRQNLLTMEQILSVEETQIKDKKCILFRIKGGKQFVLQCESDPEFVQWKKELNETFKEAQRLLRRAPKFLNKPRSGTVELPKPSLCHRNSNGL
As to the kind of experiment: Selectivity interaction (KinomeScan (DiscoverX)) EUB0001079a ADRBK2. Particulars: at 1 µM.

Chain of Misshapen-like kinase 1 (Q8N4C8 whole entry, looked up): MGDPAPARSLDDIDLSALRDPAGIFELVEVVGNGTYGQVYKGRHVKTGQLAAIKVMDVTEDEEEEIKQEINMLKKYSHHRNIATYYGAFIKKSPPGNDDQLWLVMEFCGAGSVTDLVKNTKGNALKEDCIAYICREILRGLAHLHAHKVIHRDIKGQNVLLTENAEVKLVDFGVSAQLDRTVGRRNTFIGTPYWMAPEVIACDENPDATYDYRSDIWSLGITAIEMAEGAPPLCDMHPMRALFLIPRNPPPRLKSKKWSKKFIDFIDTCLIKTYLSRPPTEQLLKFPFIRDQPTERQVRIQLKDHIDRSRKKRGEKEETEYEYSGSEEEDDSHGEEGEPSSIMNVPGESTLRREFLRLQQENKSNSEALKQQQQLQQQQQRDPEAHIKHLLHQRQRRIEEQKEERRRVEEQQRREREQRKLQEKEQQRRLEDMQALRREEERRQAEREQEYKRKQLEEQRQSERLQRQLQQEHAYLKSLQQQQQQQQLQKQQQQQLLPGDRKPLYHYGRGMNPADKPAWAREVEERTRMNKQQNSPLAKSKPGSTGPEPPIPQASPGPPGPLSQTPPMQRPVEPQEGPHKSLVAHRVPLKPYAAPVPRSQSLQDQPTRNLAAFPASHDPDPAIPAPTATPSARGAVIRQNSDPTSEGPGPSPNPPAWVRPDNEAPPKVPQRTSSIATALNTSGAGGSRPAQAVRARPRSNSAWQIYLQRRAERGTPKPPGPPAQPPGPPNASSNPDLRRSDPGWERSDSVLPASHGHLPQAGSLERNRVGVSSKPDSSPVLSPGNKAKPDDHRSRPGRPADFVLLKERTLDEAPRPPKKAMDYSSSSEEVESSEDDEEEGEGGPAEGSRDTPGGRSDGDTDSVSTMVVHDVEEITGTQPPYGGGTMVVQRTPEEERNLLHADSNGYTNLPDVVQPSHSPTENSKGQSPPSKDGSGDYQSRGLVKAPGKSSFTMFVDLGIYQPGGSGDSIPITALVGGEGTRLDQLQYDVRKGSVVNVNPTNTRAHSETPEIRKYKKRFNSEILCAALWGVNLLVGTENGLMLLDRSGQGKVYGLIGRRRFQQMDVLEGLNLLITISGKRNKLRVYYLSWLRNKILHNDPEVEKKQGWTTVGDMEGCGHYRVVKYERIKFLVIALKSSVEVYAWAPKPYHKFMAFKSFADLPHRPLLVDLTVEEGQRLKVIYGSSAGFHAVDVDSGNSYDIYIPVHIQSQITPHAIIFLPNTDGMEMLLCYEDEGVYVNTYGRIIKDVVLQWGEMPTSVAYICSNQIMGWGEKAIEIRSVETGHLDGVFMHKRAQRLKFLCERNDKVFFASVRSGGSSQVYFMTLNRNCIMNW
Chain of Leucine-rich repeat serine/threonine-protein kinase 2 (Q5S007 whole entry): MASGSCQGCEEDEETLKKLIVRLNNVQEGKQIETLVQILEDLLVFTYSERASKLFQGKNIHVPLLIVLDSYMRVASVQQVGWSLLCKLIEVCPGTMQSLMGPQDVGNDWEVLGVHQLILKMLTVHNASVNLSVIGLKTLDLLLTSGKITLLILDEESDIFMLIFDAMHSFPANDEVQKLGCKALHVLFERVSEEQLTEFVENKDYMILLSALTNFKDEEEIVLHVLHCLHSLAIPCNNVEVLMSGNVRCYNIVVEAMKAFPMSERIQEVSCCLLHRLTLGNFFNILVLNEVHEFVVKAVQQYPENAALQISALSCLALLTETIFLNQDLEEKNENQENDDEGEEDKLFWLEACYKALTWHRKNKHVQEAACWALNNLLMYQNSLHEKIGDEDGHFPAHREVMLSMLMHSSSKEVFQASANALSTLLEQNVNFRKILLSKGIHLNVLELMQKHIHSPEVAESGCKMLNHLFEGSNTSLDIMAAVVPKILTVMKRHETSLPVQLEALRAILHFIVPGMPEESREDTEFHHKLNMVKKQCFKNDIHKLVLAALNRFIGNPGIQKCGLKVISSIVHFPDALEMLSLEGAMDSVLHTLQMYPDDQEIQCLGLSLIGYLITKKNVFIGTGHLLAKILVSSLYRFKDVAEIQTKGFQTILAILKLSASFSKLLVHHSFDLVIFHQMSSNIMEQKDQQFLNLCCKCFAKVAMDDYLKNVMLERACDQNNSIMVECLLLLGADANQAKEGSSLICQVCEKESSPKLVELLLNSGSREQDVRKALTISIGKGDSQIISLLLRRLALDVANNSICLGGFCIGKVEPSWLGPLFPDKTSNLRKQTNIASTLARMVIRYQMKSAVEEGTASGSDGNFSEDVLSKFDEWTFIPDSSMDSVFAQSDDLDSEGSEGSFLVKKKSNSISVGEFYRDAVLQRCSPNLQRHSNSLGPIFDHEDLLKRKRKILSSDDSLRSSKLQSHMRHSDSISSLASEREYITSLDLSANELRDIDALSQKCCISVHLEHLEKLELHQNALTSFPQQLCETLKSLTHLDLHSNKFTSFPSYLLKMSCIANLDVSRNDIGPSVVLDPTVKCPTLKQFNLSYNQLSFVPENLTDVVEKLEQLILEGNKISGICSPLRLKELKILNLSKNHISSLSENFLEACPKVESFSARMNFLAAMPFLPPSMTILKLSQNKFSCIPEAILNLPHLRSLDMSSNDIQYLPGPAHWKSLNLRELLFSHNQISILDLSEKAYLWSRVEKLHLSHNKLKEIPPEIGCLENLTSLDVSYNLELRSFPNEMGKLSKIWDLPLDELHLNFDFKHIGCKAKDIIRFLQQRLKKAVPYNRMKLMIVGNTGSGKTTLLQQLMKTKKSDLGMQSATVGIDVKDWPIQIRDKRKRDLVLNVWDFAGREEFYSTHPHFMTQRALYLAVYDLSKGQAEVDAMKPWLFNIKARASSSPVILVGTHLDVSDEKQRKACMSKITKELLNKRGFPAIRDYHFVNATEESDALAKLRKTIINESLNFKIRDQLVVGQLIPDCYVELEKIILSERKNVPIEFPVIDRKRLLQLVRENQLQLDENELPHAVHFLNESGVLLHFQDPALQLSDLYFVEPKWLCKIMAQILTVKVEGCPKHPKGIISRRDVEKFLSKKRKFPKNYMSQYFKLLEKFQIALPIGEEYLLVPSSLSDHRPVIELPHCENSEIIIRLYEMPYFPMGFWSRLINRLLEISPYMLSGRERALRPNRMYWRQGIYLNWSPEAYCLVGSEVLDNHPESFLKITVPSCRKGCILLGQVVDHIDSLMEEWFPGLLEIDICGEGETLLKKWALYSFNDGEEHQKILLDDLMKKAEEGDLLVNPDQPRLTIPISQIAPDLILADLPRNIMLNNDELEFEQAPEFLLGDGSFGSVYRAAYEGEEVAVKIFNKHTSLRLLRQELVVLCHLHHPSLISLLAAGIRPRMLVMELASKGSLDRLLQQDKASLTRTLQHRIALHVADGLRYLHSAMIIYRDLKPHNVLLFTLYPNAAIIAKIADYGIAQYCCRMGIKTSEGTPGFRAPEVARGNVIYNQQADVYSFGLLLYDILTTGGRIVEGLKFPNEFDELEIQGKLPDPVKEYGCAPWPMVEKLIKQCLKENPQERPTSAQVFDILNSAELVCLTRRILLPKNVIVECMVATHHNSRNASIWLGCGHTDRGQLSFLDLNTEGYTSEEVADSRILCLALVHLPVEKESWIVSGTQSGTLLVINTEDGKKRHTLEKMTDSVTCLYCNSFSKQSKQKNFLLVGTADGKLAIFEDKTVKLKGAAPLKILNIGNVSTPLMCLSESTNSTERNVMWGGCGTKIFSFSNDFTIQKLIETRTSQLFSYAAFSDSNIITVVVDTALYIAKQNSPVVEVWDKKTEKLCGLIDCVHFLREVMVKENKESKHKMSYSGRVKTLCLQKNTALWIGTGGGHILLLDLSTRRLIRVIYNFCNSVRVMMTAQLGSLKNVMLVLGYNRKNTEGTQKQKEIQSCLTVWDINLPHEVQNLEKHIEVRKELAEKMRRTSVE
Chain of Leucine-rich repeat serine/threonine-protein kinase 2 (Homo sapiens), Q5S007 [G2019S] (Q5S007 whole entry G2019S): as the sequence (Q5S007 whole entry) above, with G2019S counted along it
Chain of Serine/threonine-protein kinase MARK2 (Homo sapiens) (Q7KZI7 whole entry): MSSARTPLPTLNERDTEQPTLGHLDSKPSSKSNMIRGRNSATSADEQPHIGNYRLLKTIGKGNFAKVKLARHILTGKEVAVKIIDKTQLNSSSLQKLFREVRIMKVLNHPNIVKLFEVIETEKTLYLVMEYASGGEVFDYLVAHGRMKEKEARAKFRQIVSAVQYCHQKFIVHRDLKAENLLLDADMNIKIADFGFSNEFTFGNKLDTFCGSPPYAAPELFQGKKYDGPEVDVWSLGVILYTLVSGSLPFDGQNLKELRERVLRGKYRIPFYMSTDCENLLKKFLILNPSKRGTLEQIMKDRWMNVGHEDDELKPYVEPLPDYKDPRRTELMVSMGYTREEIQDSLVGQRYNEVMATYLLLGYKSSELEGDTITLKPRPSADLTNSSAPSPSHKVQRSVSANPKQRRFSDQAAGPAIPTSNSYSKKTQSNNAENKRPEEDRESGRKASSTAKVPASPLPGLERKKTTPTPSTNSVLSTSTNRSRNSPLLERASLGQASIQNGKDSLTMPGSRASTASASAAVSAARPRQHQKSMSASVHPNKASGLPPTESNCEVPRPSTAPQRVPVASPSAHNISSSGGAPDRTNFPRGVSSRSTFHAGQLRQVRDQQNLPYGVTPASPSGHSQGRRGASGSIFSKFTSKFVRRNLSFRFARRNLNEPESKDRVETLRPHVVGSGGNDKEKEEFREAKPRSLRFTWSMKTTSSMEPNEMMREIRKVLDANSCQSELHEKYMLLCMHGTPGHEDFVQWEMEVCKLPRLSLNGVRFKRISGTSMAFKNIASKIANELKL

In assay [1], `Cc1cc([C@@H](C)Nc2ccccc2C(=O)O)c2nc(N3CCOCC3)cc(=O)n2c1` [AZD-6482] displayed a % of control of 41%.

On to `CC[C@@H]1[C@H](F)C(=O)N[C@@H]1COc1nccc2cc(C(N)=O)c(OC)cc12` [ZIMLOVISERTIB], for which, in assay [2], the % of inhibition worked out at 8.4%.

Consider `C=CC(=O)Nc1cc(-n2c(=O)ccc3cnc4ccc(-c5ccc(NS(C)(=O)=O)cc5)cc4c32)ccc1C`, for which the % of control at Misshapen-like kinase 1 (at 1 µM) is 100%; at Misshapen-like kinase 1 (at 10 µM), 73%.

Compound `CN(C)CCOc1ccc(-c2nc(-c3ccncc3)c(-c3ccc4c(c3)CC/C4=N\O)[nH]2)cc1` returned a % of control in assay [3] of 100%.

Consider `Nc1cnc(N2CCc3cc(S(=O)(=O)Nc4c(F)cc(Cl)cc4F)cc(N4CCCC4=O)c32)nc1` [TP-020n], for which the % of control was 81% in assay [4], 97% in assay [5] and 100% in assay [6].
